Test results as given in patent US10420734B2, “Method of treating cancer using selective estrogen receptor modulators” (Duke University, priority 2014, dated 2019).
Like-named read-outs stand apart in the source and are kept apart here.

Columns and labels:
[1] = system: ESR1 target gene trefoil factor 1 (TFF1); experiment: E2-dependent ESR1 target gene (TFF1) mRNA in MCF7 cells, RT qPCR; format: cell-based; conditions: 10^-9 M E2, ligand 10^-11-10^-6 M, 24 hours
Method: RNA isolation and analysis was performed as described (Wardell et al., (2001) Biochem Pharmacol 82 (2):122-130). mRNA abundance was calculated using the ΔΔCT method (Wardell et al., (2001) Biochem Pharmacol 82 (2):122-130). Primer sequences are available upon request.
(§1) The ability of RAD1901 (FIG. 5A) to modulate the […] estradiol (E2) dependent transcriptional activity of the human estrogen receptor alpha (ESR1) and human estrogen receptor beta (ESR2) was assessed in transiently transfected SKBR3 cells using a synthetic reporter gene. […] For FIG. 5B, SKBR3 cells were plated in phenol red free media supplemented with charcoal stripped FBS (CFS) 24 hours prior to transfection with an ERE-luciferase reporter together with ESR1 or ESR2 expression vectors. 24 hours after transfection, cells were treated with E2 (10 nM) together with RAD1901 (10^−10-10^−6 M) for 24 hours prior to harvest and analysis of luciferase activity normalized to co-transfected β-galactosidase control. […] DNA content as assessed by fluorescence was measured as a surrogate for cell proliferation. The relative increase in DNA fluorescence was calculated by normalizing to baseline values detected in a duplicate plate of cells that was harvested on day 1 prior to the initial treatment. […] For FIG. 5F, expression of ESR1 target genes in tumors was analyzed essentially as in (C).

[2] = system: MCF7 cells; experiment: E2-stimulated MCF7 cell proliferation assay (8 day, DNA fluorescence); format: cell-based; conditions: 10^-9 M E2, ligand 10^-11-10^-6 M, 8 day assay
Method: Assays evaluating the effects of SERDs and SERMs on cell proliferation were performed as described (Wardell et al., (2013) Clin Cancer Res 19 (9):2420-2431).
as §1

[3] = biological target: T1, ESR1 (Homo sapiens, UniProt P03372); experiment: ESR1 expression in LTED MCF7 cells (immunoblot); format: cell-based; conditions: 24 hours, SERDs 10^-6 M
T1 sequence (P03372 1-595): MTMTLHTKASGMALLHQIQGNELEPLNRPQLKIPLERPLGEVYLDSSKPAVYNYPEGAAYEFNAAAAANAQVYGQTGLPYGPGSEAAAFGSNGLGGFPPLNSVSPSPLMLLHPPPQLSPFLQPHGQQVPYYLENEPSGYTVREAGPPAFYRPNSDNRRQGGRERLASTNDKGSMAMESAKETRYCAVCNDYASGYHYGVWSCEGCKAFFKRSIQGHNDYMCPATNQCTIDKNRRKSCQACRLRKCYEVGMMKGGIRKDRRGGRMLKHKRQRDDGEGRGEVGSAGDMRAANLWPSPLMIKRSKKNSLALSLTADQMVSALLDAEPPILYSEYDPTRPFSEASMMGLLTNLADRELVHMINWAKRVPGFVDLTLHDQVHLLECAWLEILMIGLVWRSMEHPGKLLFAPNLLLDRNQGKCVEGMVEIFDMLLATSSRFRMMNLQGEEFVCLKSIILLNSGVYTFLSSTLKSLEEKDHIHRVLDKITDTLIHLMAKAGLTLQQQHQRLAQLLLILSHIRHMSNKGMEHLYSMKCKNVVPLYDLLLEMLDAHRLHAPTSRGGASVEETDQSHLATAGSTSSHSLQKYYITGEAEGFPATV
Method: MCF7 and SKBR3 cell lines were maintained in DMEM/F12 or RPMI media (Invitrogen), respectively, supplemented with 8% fetal bovine serum (FBS, Gemini), non-essential amino acids (Invitrogen), and sodium pyruvate (Invitrogen). Unless otherwise indicated, cells were plated for experiments in media lacking phenol red and supplemented with 8% charcoal stripped FBS (CFS, Gemini). LTED MCF7 cells were maintained and plated for experiments in phenol red free DMEM/F12 media supplemented with 8% CFS that had been charcoal stripped twice. 48 hours after plating, cells were treated with ESR1 ligands as indicated, and were harvested for immunoblot or real time quantitative PCR analysis 24 hours after treatment.
Expression of ESR1 and loading control cytokeratin 18 (CK18—FIG. 7A) in whole cell extracts were detected by immunoblot (top). ESR1 levels relative to CK18 were quantitated by densitometry using Adobe Photoshop (bottom). […] ESR1 expression was detected as in FIG. 6A. For FIGS. 6C-6D, LTED MCF7 cells were plated in phenol red free media supplemented with FBS that was stripped of growth factors twice using charcoal. For FIG. 6C, after 48 hours, cells were treated for 24 hours with E2 (10^−7 M) or SERDs (10^−6 M) and ESR1 was analyzed as in FIG. 6A.

[4] = cited from earlier work
[5] = biological target: T2, human estrogen receptor alpha (ESR1) (Homo sapiens, UniProt P03372); experiment: ERE-luciferase reporter assay in transiently transfected SKBR3 cells (ESR1); format: cell-based
T2 construct: expressed in transfected cells; host or cells: SKBR3
T2 sequence (P03372 1-595): T1 sequence (P03372 1-595)
Method: The ability of RAD1901 (FIG. 5A) to modulate the […] estradiol (E2) dependent transcriptional activity of the human estrogen receptor alpha (ESR1) and human estrogen receptor beta (ESR2) was assessed in transiently transfected SKBR3 cells using a synthetic reporter gene. […] For FIG. 5B, SKBR3 cells were plated in phenol red free media supplemented with charcoal stripped FBS (CFS) 24 hours prior to transfection with an ERE-luciferase reporter together with ESR1 or ESR2 expression vectors. 24 hours after transfection, cells were treated with E2 (10 nM) together with RAD1901 (10^−10-10^−6 M) for 24 hours prior to harvest and analysis of luciferase activity normalized to co-transfected β-galactosidase control. […] For FIG. 5D, MCF7 cells were plated in phenol red free media supplemented with CFS 24 hours prior to treatment, and were treated with 10^−9 M E2 as well as with the indicated ligands (10^−11-10^−6 M) on days 1, 4, and 6 of an 8 day proliferation assay. DNA content as assessed by fluorescence was measured as a surrogate for cell proliferation. The relative increase in DNA fluorescence was calculated by normalizing to baseline values detected in a duplicate plate of cells that was harvested on day 1 prior to the initial treatment. […] For FIG. 5F, expression of ESR1 target genes in tumors was analyzed essentially as in (C).

Structure (SMILES): CCNCCc1ccc(CN(CC)c2cc(OC)ccc2[C@@H]2CCc3cc(O)ccc3C2)cc1 [RAD1901, (R)-6-{2-{ethyl[4-(2-ethylaminoethyl)benzyl]amino}-4-methoxyphenyl}-5,6,7,8-tetrahydronaphthalen-2-ol]
- E2-dependent induction of target gene transcription (TFF1 mRNA) [1]: inhibited
- E2-dependent stimulation of cell proliferation [2]: inhibited
- ESR1 expression levels [3]: downregulated ESR1 expression
- induction of hot flashes ([4]; healthy postmenopausal women): induces hot flashes in healthy postmenopausal women in a dose dependent manner
- hot flashes in clinical trials ([4]; higher doses tested): ineffective
- hot flashes in clinical trials ([4]; lowest dose tested): effectively suppress hot flashes
- brain penetrance ([4]; postmenopausal women): significant brain penetrance
- more potent inhibitor of ESR1 than of ESR2 ([5]; ERE-luciferase reporter): 100 fold
- inhibition of E2-dependent activation of an ERE-luciferase reporter ([5]; ESR1 isoform, E2 10 nM, RAD1901 10^-10-10^-6 M, 24 hours): effectively inhibited
